Counter-ions that a name gives are not always drawn.
Columns and labels:
[1] = target: T1, hrPARP-1 (human recombinant, Trevigen) (Homo sapiens, UniProt P09874); assay: Functional assessment of human PARP-1 enzymatic activity; assay type: biochemical; details: 1 U hrPARP-1, 15 μg/mL activated DNA, 5 μM NAD+, 20 min room temperature
T1 construct: purchased Trevigen
Experimental: Functional Assessment of Human PARP-1 Enzymatic Activity
hrPARP-1 (human recombinant, Trevigen), Activated DNA (Sigma), 6(5H)-phenanthridinone (PND), (Sigma), NAD+ (Calbiochem), PARP-1 assay buffer (50 mM Tris, 2 mM MgCl2, pH 8.0), 20% acetophenone in EtOH, 2 M KOH
88% formic acid, 110° C. oven, Flexstation Plate Reader.
Compound plates were prepared by making a series of 1:3 dilutions for each tested compound, 10 steps of each at 20 μL in DMSO starting from a concentration of 5 mM. NAD^+ (39 μL of a 6.4 μM solution) were added to each well of a 96-well flat bottom fluorescent assay plate. Test compound (1 μL) was added to each well. To initiate the reaction, 10 μL of PARP (contains 5 U of PARP and 75 μg/mL activated DNA) was added with a final 1 U hrPARP-1, 15 μg/mL activated DNA and 5 μM of NAD^+. The highest concentration used for test compounds was 100 μM. The plates were incubated at room temperature on a shaker. After 20 min, 20 μL of 2 M KOH and 20 μL of 20% acetophenone were added. The plate was incubated 10 min. at 4° C., and 90 μL of 88% formic acid was added. After incubating in an 110° C. oven for 5 min, the plate was cooled to room temperature and read of a Flexstation Plate Reader (excitation at 360 nm, emission at 445 nm).
LSW data analysis software was used to generate PARP-1 IC50s.

[2] = Microsomal stability, human liver microsomes; assay type: in vitro ADME; details: 0.5 mg/mL protein
Experimental: (§1) The assay protocol was described in Summerfield S G, Read K, Begley D J, Obradovic T, Hidalgo I J, Coggon S, Lewis A V, Porter R A, Jeffrey P 2007. Central Nervous System Drug Disposition: The Relationship between in Situ Brain Permeability and Brain Free Fraction. J Pharmacol Exp Ther, 322(1):205-213; and Li Di, E. Kerns, S. Li, S. Petusky, “High Throughput Metabolic Stability Assay for Insoluble Compounds”, Int. J. Pharm., 317, 54-60, 2006.
(§2) The samples were incubated with liver microsomes from rat, mouse, and human at 1 μM at microsomal protein concentration of 0.5 mg/mL at 37° C. in the presence of NADPH cofactor. At both time 0 and 15 minutes incubation, cold acetonitrile was added to the wells to stop the reaction. The solution was centrifuged and the supernatants were analyzed using LC-MS-MS. “Phase I” represents Phase I metabolism-oxidative metabolism by microsomes and “Phase II” represents Phase I oxidative metabolism (stated above) plus cofactors added that allow for Phase II (non-oxidative, conjugative) metabolism to take place.

[3] = Microsomal stability, rat liver microsomes; assay type: in vitro ADME; details: 0.5 mg/mL protein
Experimental: as §1, §2

[4] = MDCK permeability assay (efflux ratio); assay type: in vitro ADME, Canine; details: dog, MDCK-MDR1, pH 7.4, MDR-MDCK cells, 37° C., Papp(B-A)/Papp(A-B)
Experimental: 1. MDCK Permeability Assay
Multi Drug Resistance-Madin-Darby Canine Kidney (MDR-MDCK) cells were obtained from NIH (Bethesda, Md., USA). Cells were plated on Costar 3401 Transwell 12 well, 12 mm diameter, 0.4 um pore size plates (Costar, Mass., USA) and cultured for at least 6 days prior to the transport assay. The cells were carefully pre-washed with Hank's balanced salt solution containing 10 mM HEPES and 15 mM D-glucose at pH 7.4, which was also used as the assay buffer. The test compounds were dosed on the apical side (A-B) or the basolateral side (B-A) with 0.2 mM Lucifer Yellow (500 μL into apical side, 1500 μL into basolateral side). The test compounds in the apical or basolateral chambers were at an initial concentration of 10 μM. The plates were incubated at 37° C. with 5% CO2 and 90% relative humidity for 2 hours. One hundred microliters of receiver solution (basolateral side for A-B transport experiment, apical side for B-A transport experiment) was transferred to a 96 well plate for LC-MS-MS quantization of the test compound concentration and fluorometer quantization of Lucifer Yellow.
Quality control compounds and TEER measurements were run to assure proper operation of the assay (see Table 2). The TEER values of each well use for the assay should be ≧1400 ohm·cm^2.

[5] = Brain (B)-Plasma (P) dialysis; assay type: in vitro ADME; details: for Kp at 5 h, 10 μM: diluted plasma or brain homogenate vs PBS, 37° C., read-out: Brain-Plasma Dialysis B/P Ratio; for B/P ratio divided by MDCK efflux ratio at 10 μM: read-out: Brain-Plasma Dialysis B/P/efflux ratio (ER)
Experimental: 2. Brain (B)-Plasma (P) Dialysis
DMSO stock solution of 1 mM was prepared and 10 μL was added to 990 uL plasma (1 plasma:3 PBS) or brain homogeneous (1 brain:12 PBS). The final concentration was 10 μM test compound with 1% DMSO. The dialysis was setup with 200 uL PBS vs. 200 uL diluted plasma or diluted brain homogenates with test compounds. The dialysis plate was incubated at 37° C., 70 RPM for 5 hours. At the end of the incubation, 150 μL PBS, 50 uL plasma and 50 uL of brain homogenates were sampled from the dialysis device. Each of the samples was matched with PBS, plasma and brain homogenates to give consistent matrix material. Cold acetonitrile of 300 μL was added to the sample to precipitate the proteins and tissues. The solutions were centrifuged and the supernatants were transferred for LC-MS-MS analysis. Four replicates were preformed for each test compound. Data was calculated according to Summerfield S G, Read K, Begley D J, Obradovic T, Hidalgo I J, Coggon S, Lewis A V, Porter R A, Jeffrey P 2007. Central Nervous System Drug Disposition: The Relationship between in Situ Brain Permeability and Brain Free Fraction.

[6] = Microsomal stability, C57 mouse liver microsomes; assay type: in vitro ADME; details: 0.5 mg/mL protein
Experimental: as §1, §2

[7] = NADPH, Phase I, read-out: Microsomal Stability Human Phase I t1/2
[8] = Phase I plus Phase II cofactors, read-out: Microsomal Stability Human Phase I & II t1/2
[9] = NADPH, Phase I, read-out: Microsomal Stability Rat Phase I t1/2
[10] = Phase I plus Phase II cofactors, read-out: Microsomal Stability Rat Phase I & II t1/2
[11] = NADPH, Phase I, read-out: Microsomal Stability C57 Mouse Phase I t1/2
[12] = Phase I plus Phase II cofactors, read-out: Microsomal Stability C57 Mouse Phase I & II t1/2

T1 sequence (P09874 whole entry): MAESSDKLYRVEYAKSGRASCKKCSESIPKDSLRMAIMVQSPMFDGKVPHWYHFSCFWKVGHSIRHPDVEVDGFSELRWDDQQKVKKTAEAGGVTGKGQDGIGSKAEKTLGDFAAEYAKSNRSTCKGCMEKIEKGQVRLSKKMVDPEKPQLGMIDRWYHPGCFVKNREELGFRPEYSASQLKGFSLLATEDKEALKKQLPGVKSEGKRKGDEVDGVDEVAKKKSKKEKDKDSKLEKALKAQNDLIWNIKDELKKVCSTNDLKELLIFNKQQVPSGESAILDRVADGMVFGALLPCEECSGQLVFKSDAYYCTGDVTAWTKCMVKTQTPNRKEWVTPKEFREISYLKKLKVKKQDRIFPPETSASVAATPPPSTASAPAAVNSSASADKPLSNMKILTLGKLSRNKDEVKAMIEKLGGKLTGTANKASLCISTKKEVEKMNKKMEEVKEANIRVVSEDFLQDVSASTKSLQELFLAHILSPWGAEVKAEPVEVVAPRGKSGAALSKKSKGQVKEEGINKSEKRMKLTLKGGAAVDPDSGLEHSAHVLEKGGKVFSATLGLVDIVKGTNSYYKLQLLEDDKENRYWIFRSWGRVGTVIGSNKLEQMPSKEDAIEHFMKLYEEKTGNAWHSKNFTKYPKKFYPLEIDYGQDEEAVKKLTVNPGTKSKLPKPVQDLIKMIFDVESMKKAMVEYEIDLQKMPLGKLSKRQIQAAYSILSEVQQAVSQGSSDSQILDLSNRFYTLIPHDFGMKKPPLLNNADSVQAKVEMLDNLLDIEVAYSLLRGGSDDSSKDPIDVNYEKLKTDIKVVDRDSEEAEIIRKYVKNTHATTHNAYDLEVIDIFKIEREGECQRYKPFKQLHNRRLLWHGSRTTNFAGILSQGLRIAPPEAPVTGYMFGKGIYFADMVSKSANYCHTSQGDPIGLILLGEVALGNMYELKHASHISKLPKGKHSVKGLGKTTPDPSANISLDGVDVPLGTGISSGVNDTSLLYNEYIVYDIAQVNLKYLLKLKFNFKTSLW

Structure (SMILES)	IC50 [1] [nM]	half-life at 1 μM [2, 7] [min]	half-life at 1 μM [2, 8] [min]	half-life at 1 μM [3, 9] [min]	half-life at 1 μM [3, 10] [min]	efflux ratio at 2 h, 10 μM [4]	Kp at 5 h, 10 μM [5]	B/P ratio divided by MDCK efflux ratio at 10 μM [5]	half-life at 1 μM [6, 11] [min]	half-life at 1 μM [6, 12] [min]	melting point [°C]
COc1ccc2c(=O)[nH]c3sc(CN(C)C)cc3c2c1 [Example 8, 2-[(Dimethylamino)methyl]-8-methoxythieno[2,3-c]isoquinolin-5(4H)-one hydrochloride]	2190	–	–	–	–	–	–	–	–	–	–
Br.CN(C)Cc1cc2c([nH]c(=O)c3cccc(O)c32)s1 [Example 2, 2-Dimethylaminomethyl-9-hydroxythieno[2,3-c]isoquinolin-5(4H)-one hydrobromide]	28	> 30	17	6	< 1	1.7	0.05	0.03	15	19	–
CN(C)Cc1cc2c([nH]c(=O)c3cc(F)cc(O)c32)s1 [Example 7, 2-[(Dimethylamino)methyl]-7-fluoro-9-hydroxythieno[2,3-c]isoquinolin-5(4H)-one hydrochloride]	38	–	–	–	–	–	–	–	–	–	–
COc1cccc2c(=O)[nH]c3sc(CN(C)C)cc3c12.Cl [Example 1, 2-Dimethylaminomethyl-9-methoxythieno[2,3-c]isoquinolin-5(4H)-one hydrochloride]	137	–	–	–	–	–	–	–	–	–	264 to 265
CN(Cc1ccccc1)Cc1cc2c([nH]c(=O)c3cccc(O)c32)s1 [Example 17, 2-{[Benzyl(methyl)amino]methyl}-9-hydroxythieno[2,3-c]isoquinolin-5(4H)-one]	373	–	–	–	–	–	–	–	–	–	–
O=c1[nH]c2sc(CN(Cc3ccccc3)Cc3ccccc3)cc2c2c(O)cccc12 [Example 16, 2-[(Dibenzylamino)methyl]-9-hydroxythieno[2,3-c]isoquinolin-5(4H)-one]	1060	–	–	–	–	–	–	–	–	–	–
CC(C)NCc1cc2c([nH]c(=O)c3cccc(O)c32)s1 [Example 13, 9-Hydroxy-2-{[(1-methylethyl)amino]methyl}thieno[2,3-c]isoquinolin-5(4H)-one]	86	> 30	> 30	< 1	< 1	–	1.53	–	28	24	–
CN(C)Cc1cc2c([nH]c(=O)c3cc(F)ccc32)s1 [Example 4, 2-[(Dimethylamino)methyl]-7-fluorothieno-[2,3-c]isoquinolin-5(4H)-one hydrochloride]	100	–	–	–	–	–	–	–	–	–	–
O=c1[nH]c2sc(CN3CCSC3)cc2c2c(O)cccc12 [Example 12, 9-Hydroxy-2-(1,3-thiazolidin-3-ylmethyl)thieno[2,3-c]isoquinolin-5(4H)-one]	3.3	6	4	5	5	0.8	0.79	0.79	4	5	–
CN(C)Cc1cc2c([nH]c(=O)c3ccccc32)s1 [Example 3, 2-[(Dimethylamino)methyl]thieno[2,3-c]isoquinolin-5(4H)-one hydrochloride]	260	–	–	–	–	–	–	–	–	–	–
CN(C)Cc1cc2c([nH]c(=O)c3cccc(F)c32)s1 [Example 5, 2-[(Dimethylamino)methyl]-9-fluorothieno[2,3-c]isoquinolin-5(4H)-one hydrochloride]	200	–	–	–	–	–	–	–	–	–	–
O=c1[nH]c2sc(CN3CCCC3)cc2c2c(O)cccc12 [Example 14, 9-Hydroxy-2-(pyrrolidin-1-ylmethyl)thieno[2,3-c]isoquinolin-5(4H)-one]	81	> 30	> 30	> 30	> 30	> 20	1.03	< 0.05	> 30	> 30	–
O=c1[nH]c2sc(CN3CCC(Br)CC3)cc2c2c(O)cccc12 [Example 15, 2-[(4-Bromopiperidin-1-yl)methyl]-9-hydroxythieno[2,3-c]isoquinolin-5(4H)-one]	35	7	5	3	3	0.9	1.12	1.12	4	3	–
CN(C)Cc1cc2c([nH]c(=O)c3ccc(Cl)cc32)s1 [Example 6, 8-Chloro-2-[(dimethylamino)methyl]thieno[2,3-c]isoquinolin-5(4H)-one hydrochloride]	2250	–	–	–	–	–	–	–	–	–	–
O=c1[nH]c2sc(CN3CCOCC3)cc2c2c(O)cccc12 [Example 10, 9-Hydroxy-2-(morpholin-4-ylmethyl)thieno[2,3-c]isoquinolin-5(4H)-one]	5.6	> 30	30	30	> 30	3.1	0.81	0.04	> 30	> 30	–
O=c1[nH]c2sc(CN3CCCCC3)cc2c2c(O)cccc12 [Example 11, 9-Hydroxy-2-(piperidin-1-ylmethyl)thieno[2,3-c]isoquinolin-5(4H)-one]	4.7	19	17	10	18	10.4	1.25	0.12	27	> 30	–
CN(C)Cc1cc2c([nH]c(=O)c3ccccc32)o1 [Example 9, 2-[(Dimethylamino)methyl]furo[2,3-c]isoquinolin-5(4H)-one hydrochloride]	161	–	–	–	–	–	–	–	–	–	–

Source: patent US9079915B2, “Thienyl- and furanyl-isoquinolinones and methods for using them” (priority 2008, dated 2015)
